In PMC9867837 (Cancer letters, 2022):
Like-named read-outs stand apart in the source and are kept apart here. Non-standard residues stand in square brackets, D forms with d. No end group written: not given here. pY = N[C@@H](Cc1ccc(OP(=O)(O)O)cc1)C(=O)O

Columns and labels:
[1] = target: SH2 domain of pure recombinant Stat3 (Homo sapiens, UniProt P40763); assay: Stat3 fluorescence polarization (FP) assay; format: binding; conditions: 0–10 μM, 5-carboxyfluorescein-GpYLPQTV-NH2 probe
Protocol: Details are presented in Supplementary Information, “Methods”.
The Stat3:azetidine compound interaction was investigated further by focusing on how the compounds might interfere with Stat3 dimerization (Stat3:Stat3), which occurs via pTyr peptide:SH2 domain interaction. […]
confocal microscope (Stellaris 8-STED Super -resolution , Germany) with a 60x oil lens and images were processed by ImageJ software.
1.2.9. Fluorescence polarization assay (FP)
These studies were conducted as previously reported using the labeled phosphopeptide, 5-carboxyfluorescein GpYLPQTV-NH 2 (where pY represents phospho-Tyr) as probe and purified recombinant Stat3, with some modifications. […]
10 µM of unlabeled GpYLPQTV-NH 2 (positive control) or H182 at 30 °C for 30 min in the indicated assay buffer conditions, prior to the addition of the labeled probe at 10 nM final concentration and incubated for 30 min at room temperature, and thereafter reading the FP signal at 10, 30, and 60 min using the SpectraMax ID5 (Molecular Devices, San Jose, CA), with the set gain adjustment at 35 mP. In some cases, the recombinant His-Stat3 was pre-incubated with the unlabeled GpYLPQTV-NH 2 or H182 at 0-10 µM for 10 min or at 0-50 µM for 30 min prior to incubation with the labeled probe, and thereafter reading the FP signal at 10, 30, or 60 min using the SpectraMax ID5, with the set gain adjustment at 35 mP.
1.2.10. […]

[2] = target: T1, Stat3:Stat3 DNA-binding activity (Mus musculus, UniProt P42227); assay: EMSA of Stat3:Stat3 DNA-binding activity in nuclear extracts; format: biochemical; conditions: for Stat3-inhibitory potency on replacing the para-fluorine: EMSA
T1 construct: endogenous in cells; host or cells: NIH3T3/v-Src fibroblasts; EGF-stimulated NIH3T3/hEGFR fibroblasts (nuclear extracts)
Protocol: (§1) Details are presented in Supplementary Information, “Methods”. […]
(§2) min, prior to incubation with the radiolabeled probe for 30 min at 30 °C and subjecting to EMSA analysis.
(§3) In another case, the nuclear extract was pre-incubated with the radiolabeled probe for 30 min at 30 °C prior to incubation with increasing concentration of H182 at room temperature for 30 min and subjecting to EMSA analysis. Bands corresponding to Stats DNA- binding activities were scanned and quantified using ImageJ and plotted as a percentage of control (vehicle) against the concentration of the inhibitor, from which the IC50 values were derived .

[3] = system: MDA-MB-231 cells; assay: CyQuant viable cell number assay, MDA-MB-231; format: cell-based, human
Protocol: (§4) CyQuant assay was performed to evaluate compounds as previously reported. Details are presented in Supplementary Information, “Methods”. […]
(§5) 1.2.6. Cell viability assays
(§6) CyQuant assay was performed to evaluate compounds as previously reported [1 -3] . Briefly, cells (5 x 10^3 per well, 100 µl) in culture in 96-well plates were treated once with 0 -10 µM concentrations of H120, H105, […]
(§7) concentration of H182 for 6 h and then treated with 0- 100 nM docetaxel or 0-20 µM cisplatin for a total of 72 h. Viable cell numbers were assessed by a CyQuant cell proliferation kit according to the manufacturer’s instructions (Thermo/Life Technologies Corp, Carlsbad, CA). Viable cell numbers were normalized to that of DMSO (control)-treated samples. […]

[4] = target: Stat5:Stat5 DNA-binding activity; assay: EMSA of Stat5:Stat5 DNA-binding activity in nuclear extracts of EGF-stimulated NIH3T3/hEGFR; format: biochemical, mouse; conditions: Fig. 1C, MGFe probe, 30 min
Protocol: (§8) These studies were carried out as previously described using the ^32P-labeled oligonucleotide probes, hSIE (high affinity sis-inducible element from the c-fos gene, m67 variant, 5^′-[…]) that binds Stat1 and Stat3 [11, 12] and the mammary gland factor element (MGFe) from the bovine β–casein gene promoter (sense strand, 5^′-[…]) that binds Stat5 and Stat1 [11, 12]. Details are presented in Supplementary Information, “Methods”. […]
as §2, §3

[5] = system: MDA-MB-468 cells; assay: CyQuant viable cell number assay, MDA-MB-468; format: cell-based, human; conditions: Homo sapiens, MDA-MB-468, 72 h, read-out: IC50 viable cell numbers, MDA-MB-468
Protocol: as §4, §5, §6, §7

[6] = system: MDA-MB-231 tumor xenografts; assay: Subcutaneous MDA-MB-231 xenografts in athymic nude mice; format: in vivo
Protocol: Mice were housed in specific pathogen-free conditions in the animal facility. All animal experiments were conducted in accordance with the recommendations in the Guide for the Care and Use of Laboratory Animals on a protocol approved by the Institutional Animal Care and Use Committee (IACUC). Subcutaneous xenograft studies were performed as previously reported. Five-week-old female athymic nude mice were purchased from Envigo (Indianapolis, IN) or Charles River (Wilmington, MA) and maintained in the institutional animal facilities approved by the American Association for Accreditation of Laboratory Animal Care. […] Tumor sizes were monitored every 3–4 days, measured with calipers, and converted to tumor volume, V, according to the formula V = 0.52 × a^2 × b, where a, smallest superficial diameter, and b, largest superficial diameter. For each treatment group, the tumor volumes for each set of measurements were statistically analyzed relative to the control (DMSO-treated; 70% DMSO with sterile PBS) group.
Constitutively-active Stat3 promotes primary tumor development and the progression to therapy resistance. We proceeded to evaluate the in vivo antitumor efficacy against tumor growth in both human xenograft and mouse syngeneic models of TNBC. In four separate studies, we tested the efficacy of H182, H278 (HCl salt of H182), and H120. For these xenografts, the human breast cancer, MDA-MB-231 cells were injected subcutaneously into athymic nude mice. When tumors were palpable (80–120 mm^3), mice were grouped so that the mean tumor sizes were identical between groups and treated as follows: A) intraperitoneal (IP) injections of H182 at 10 mg/kg every other day for 33 days; B) oral gavage of H182 every day at 5 mg/kg for 20 days, and then increased to 20 mg/kg for additional 12 days; and C) oral gavage of H120 at 20 mg/kg, daily for 14 days, and then increased to 30 mg/kg, daily for additional 14 days.

[7] = target: T2, Stat1:Stat1 DNA-binding activity (Mus musculus, UniProt P42225); assay: EMSA of Stat1:Stat1 DNA-binding activity in nuclear extracts of EGF-stimulated NIH3T3/hEGFR; format: biochemical; conditions: Fig. 1C, 30 min
T2 construct: endogenous in cells; host or cells: EGF-stimulated NIH3T3/hEGFR fibroblasts (nuclear extract)
T2 sequence (P42225 2-749 limits assumed): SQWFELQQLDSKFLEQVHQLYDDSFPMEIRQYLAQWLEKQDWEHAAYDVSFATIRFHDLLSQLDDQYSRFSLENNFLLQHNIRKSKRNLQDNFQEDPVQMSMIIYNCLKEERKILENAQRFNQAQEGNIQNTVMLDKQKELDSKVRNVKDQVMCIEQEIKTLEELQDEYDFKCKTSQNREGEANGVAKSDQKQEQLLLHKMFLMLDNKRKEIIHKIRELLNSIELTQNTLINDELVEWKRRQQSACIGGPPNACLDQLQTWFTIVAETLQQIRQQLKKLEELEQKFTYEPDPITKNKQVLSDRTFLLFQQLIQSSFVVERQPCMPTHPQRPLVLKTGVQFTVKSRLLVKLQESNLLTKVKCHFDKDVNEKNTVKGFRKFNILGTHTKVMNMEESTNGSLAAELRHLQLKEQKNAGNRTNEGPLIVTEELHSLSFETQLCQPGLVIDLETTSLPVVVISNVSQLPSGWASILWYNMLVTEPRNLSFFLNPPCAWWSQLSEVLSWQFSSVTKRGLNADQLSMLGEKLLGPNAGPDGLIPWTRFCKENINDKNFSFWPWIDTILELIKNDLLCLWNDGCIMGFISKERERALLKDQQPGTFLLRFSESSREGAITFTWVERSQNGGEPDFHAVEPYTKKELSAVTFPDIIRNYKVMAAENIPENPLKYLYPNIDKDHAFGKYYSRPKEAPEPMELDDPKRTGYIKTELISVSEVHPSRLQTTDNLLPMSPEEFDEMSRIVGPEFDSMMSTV
Protocol: as §8, §2, §3

[8] = target: T3, Stat1:Stat3 DNA-binding activity (Mus musculus, UniProt P42227); assay: EMSA of Stat1:Stat3 DNA-binding activity in nuclear extracts of EGF-stimulated NIH3T3/hEGFR; format: biochemical; conditions: Fig. 1C, hSIE probe, 30 min
T3 construct: endogenous in cells; host or cells: EGF-stimulated NIH3T3/hEGFR fibroblasts (nuclear extract)
Protocol: as §1, §2, §3

[9] = Table 1, replacement of p-fluorine (R1), read-out: EMSA IC50
[10] = Homo sapiens, MDA-MB-231, read-out: IC50 viable cell numbers, MDA-MB-231, CyQuant, 72 h
[11] = Fig. 1C, extracts of EGF-stimulated NIH3T3/hEGFR, hSIE probe, 30 min, read-out: IC50 Stat3:Stat3
[12] = range over the named compounds and incubation times, read-out: IC50 Stat3 DNA-binding activity in vitro (summary range)
[13] = first Stat1:Stat1 value listed (hSIE probe)
[14] = second Stat1:Stat1 value listed (MGFe probe)

T1 sequence (P42227 2-770 limits assumed): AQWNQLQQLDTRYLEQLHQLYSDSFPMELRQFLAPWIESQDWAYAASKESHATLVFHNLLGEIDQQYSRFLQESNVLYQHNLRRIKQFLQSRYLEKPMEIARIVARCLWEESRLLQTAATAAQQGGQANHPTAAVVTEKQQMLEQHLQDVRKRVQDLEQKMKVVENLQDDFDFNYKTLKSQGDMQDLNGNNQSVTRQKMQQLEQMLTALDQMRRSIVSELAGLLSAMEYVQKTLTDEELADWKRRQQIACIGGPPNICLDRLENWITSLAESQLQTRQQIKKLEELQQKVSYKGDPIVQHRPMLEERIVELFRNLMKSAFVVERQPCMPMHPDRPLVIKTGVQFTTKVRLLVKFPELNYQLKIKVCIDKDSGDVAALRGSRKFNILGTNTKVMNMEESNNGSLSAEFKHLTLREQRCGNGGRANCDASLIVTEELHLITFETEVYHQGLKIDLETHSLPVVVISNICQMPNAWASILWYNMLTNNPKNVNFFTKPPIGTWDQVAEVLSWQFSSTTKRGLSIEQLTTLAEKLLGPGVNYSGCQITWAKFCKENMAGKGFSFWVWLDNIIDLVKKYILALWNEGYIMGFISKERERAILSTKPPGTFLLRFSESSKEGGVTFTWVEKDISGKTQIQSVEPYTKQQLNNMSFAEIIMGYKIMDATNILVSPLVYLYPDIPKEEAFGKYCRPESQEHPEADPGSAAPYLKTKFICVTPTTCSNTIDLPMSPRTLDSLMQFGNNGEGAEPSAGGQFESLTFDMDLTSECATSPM
T3 sequence (P42227 2-770 limits assumed, one chain of several): as the sequence (P42227 2-770 limits assumed) above
Chain of SH2 domain of pure recombinant Stat3 (P40763 whole entry, the tested form may be a part): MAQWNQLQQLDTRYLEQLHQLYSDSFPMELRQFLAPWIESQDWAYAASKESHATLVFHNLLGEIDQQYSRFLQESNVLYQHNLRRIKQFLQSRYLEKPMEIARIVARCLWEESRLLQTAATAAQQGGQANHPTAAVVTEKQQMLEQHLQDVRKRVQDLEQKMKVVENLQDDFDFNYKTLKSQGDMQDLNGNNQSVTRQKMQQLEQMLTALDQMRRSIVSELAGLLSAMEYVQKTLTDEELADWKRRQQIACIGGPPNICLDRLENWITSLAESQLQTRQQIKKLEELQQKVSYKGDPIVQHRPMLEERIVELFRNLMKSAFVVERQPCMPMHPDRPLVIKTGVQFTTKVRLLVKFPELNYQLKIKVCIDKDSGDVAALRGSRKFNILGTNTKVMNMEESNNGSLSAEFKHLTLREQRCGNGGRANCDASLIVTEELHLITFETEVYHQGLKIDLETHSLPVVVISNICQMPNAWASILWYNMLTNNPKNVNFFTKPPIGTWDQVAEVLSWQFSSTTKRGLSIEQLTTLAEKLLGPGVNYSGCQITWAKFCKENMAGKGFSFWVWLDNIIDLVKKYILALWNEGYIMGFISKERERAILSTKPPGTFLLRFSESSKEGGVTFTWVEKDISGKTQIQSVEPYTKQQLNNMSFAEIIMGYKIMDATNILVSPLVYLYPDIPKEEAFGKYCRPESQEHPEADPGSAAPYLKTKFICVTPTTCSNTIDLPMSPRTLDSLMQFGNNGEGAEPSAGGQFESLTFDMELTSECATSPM

Row | Molecule | Stat3-inhibitory potency on replacing the para-fluorine [2] | IC50 [2, 9] [nM] | IC50 [3, 10] [µM] | IC50 [4] [µM] | IC50 [5] [µM] | IC50 [2, 11] [nM] | IC50 [2, 12] [nM] | IC50 [7, 13] [µM] | IC50 [7, 14] [µM] | IC50 [8] [µM] | also measured
1 | GpYLPQTV-NH2 (G[pY]LPQTV-NH2) [reference compound] |  |  |  |  |  |  |  |  |  |  | Effect on FP signal [1]: dose-dependent reduction of the FP signal down to the baseline of 45–50 mP
2 | O=C(O)c1ccc(N(Cc2cnc(C3CCCCC3)cn2)C(=O)[C@H]2CCN2S(=O)(=O)c2c(F)c(F)c(Cl)c(F)c2F)cc1O [Compound H186] | loss of Stat3-inhibitory potency | > 30000 |  |  |  |  |  |  |  |  | 
3 | O=C(NO)c1ccc(N(Cc2ccc(C3CCOCC3)cc2)C(=O)[C@H]2CCN2S(=O)(=O)c2c(F)c(F)c(F)c(F)c2F)cc1O [Compound H120] |  |  | 2.6 to 3.6 | > 20 | 2.6 to 3.6 | 2100 | 1750 to 2070 | > 20 | > 20 | 7.2 | Tumor growth, MDA-MB-231 xenografts ([6]; H120 oral gavage daily 20 mg/kg for 14 days, then 30 mg/kg for 14 days): significant tumor growth inhibition; Body weights and obvious signs of toxicity ([6]; the three xenograft studies): No notable changes
4 | O=C(NO)c1ccc(N(Cc2ccc(C3CCCCC3)cc2)C(=O)[C@H]2CCN2S(=O)(=O)c2c(F)c(F)c(F)c(F)c2F)c(F)c1 [Compound H105] |  |  | 2.6 to 3.6 | 20 | 2.6 to 3.6 | 1800 | 1750 to 2070 | 15.8 | > 20 | 8.3 | 
5 | N.N.[Cl][Pt][Cl] [cisplatin, reference compound] |  |  |  |  |  |  |  |  |  |  | IC50 ([3]; MDA-MB-231, DMSO or 1 μM H182 pre-treatment 6 h, then docetaxel or cisplatin, total 72 h, read-out: IC50 of chemotherapeutic agent alone or with H182): 7 µM
6 | O=C(O)c1ccc(N(Cc2cnc(C3CCCCC3)cn2)C(=O)[C@H]2CCN2S(=O)(=O)c2c(F)c(F)cc(F)c2F)cc1O [Compound H176] | loss of Stat3-inhibitory potency | > 30000 |  |  |  |  |  |  |  |  | 
